Measurements taken from US10670605B2, “Cysteine reactive probes and uses thereof” (The Scripps Research Institute, priority 2015, dated 2020).
Values joined by “and” are separate entries in the source; they are usually repeats but may differ in a detail not shown here. Equal entries are not always repeated.

Legend:
Assay in all cases: Competitive isoTOP-ABPP, cell lysates;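 for isoTOP-ABPP reactivity profile ratio, Q15084 C190: Heavy/light ratio DMSO over fragment-treated so higher means more cysteine engagement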;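 for isoTOP-ABPP reactivity profile ratio, Q99873 C109: Heavy/light ratio DMSO over fragment-treated so higher means more cysteine engagement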
Assay type in all cases: binding
[1] = target: T1, ACAT1 C119 (P24752) (Homo sapiens, UniProt P24752); conditions: for isoTOP-ABPP reactivity ratio, P24752_C119 / isoTOP-ABPP reactivity profile ratio, P24752_C119: 500 μm
T1 sequence (P24752 34-427): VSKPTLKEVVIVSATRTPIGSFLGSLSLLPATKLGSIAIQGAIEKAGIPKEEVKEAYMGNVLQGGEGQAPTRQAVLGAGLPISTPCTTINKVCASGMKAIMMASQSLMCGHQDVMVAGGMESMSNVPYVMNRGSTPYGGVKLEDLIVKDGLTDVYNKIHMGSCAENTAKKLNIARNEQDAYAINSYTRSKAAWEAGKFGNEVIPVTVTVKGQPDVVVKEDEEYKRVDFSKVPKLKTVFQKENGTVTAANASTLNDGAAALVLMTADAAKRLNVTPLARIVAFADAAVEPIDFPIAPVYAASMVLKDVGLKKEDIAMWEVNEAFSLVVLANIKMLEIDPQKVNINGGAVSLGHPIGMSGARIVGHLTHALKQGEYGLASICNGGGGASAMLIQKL

[2] = target: T2, ACAT1 C126 (P24752) (Homo sapiens, UniProt P24752)
T2 sequence (P24752 34-427): T1 sequence (P24752 34-427)

[3] = target: XPO1 C34 (O14980) (Homo sapiens, UniProt O14980); conditions: for isoTOP-ABPP reactivity ratio, O14980_C34 / isoTOP-ABPP reactivity profile ratio, O14980_C34: 500 μm
[4] = target: T3, ADA C75 (P00813) (Homo sapiens, UniProt P00813)
T3 sequence (P00813 1-363): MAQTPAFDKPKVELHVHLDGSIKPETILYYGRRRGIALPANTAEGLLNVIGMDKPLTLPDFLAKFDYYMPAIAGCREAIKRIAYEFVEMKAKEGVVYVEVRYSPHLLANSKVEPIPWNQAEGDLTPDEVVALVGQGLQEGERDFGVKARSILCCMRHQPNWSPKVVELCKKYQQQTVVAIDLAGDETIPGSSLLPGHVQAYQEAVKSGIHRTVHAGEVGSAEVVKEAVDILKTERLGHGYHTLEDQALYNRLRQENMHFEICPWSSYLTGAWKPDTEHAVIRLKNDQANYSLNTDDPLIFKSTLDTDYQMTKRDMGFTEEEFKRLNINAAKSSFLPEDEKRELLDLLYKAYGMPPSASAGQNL

[5] = target: T4, PDIA6 C190 (Q15084) (Homo sapiens, UniProt Q15084); conditions: for isoTOP-ABPP reactivity ratio, Q15084_C190 / isoTOP-ABPP reactivity profile ratio, Q15084_C190: 500 μm;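 for isoTOP-ABPP reactivity profile ratio, Q15084 C190: Heavy/light ratio DMSO over fragment-treated so higher means more cysteine engagement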
T4 sequence (Q15084 20-440): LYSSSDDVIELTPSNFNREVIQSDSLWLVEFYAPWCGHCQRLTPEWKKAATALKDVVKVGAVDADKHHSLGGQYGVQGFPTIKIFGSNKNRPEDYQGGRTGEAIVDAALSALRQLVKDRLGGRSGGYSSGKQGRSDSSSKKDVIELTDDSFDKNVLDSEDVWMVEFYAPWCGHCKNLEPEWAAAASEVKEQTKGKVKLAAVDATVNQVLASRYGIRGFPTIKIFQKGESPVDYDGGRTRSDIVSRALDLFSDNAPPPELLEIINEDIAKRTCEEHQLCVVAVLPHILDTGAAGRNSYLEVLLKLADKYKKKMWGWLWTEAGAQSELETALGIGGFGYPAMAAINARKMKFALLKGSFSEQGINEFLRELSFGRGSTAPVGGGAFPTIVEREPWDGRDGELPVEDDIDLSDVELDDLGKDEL

[6] = target: XPO1 C528 (O14980) (Homo sapiens, UniProt O14980)
[7] = target: PRMT1 C109 (Q99873) (Homo sapiens, UniProt Q99873); conditions: for isoTOP-ABPP reactivity ratio, Q99873_C109 / isoTOP-ABPP reactivity profile ratio, Q99873_C109: 500 μm;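 for isoTOP-ABPP reactivity profile ratio, Q99873 C109: Heavy/light ratio DMSO over fragment-treated so higher means more cysteine engagement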
[8] = target: DCUN1D1 C115 (Q96GG9) (Homo sapiens, UniProt Q96GG9)
[9] = target: STAT3 C259 (P40763) (Homo sapiens, UniProt P40763)
[10] = target: SMARCC2 C145 (Q8TAQ2) (Homo sapiens, UniProt Q8TAQ2); conditions: for isoTOP-ABPP reactivity ratio, Q8TAQ2_C145 / isoTOP-ABPP reactivity profile ratio, Q8TAQ2_C145: 500 μm
SMARCC2 C145 (Q8TAQ2), sequence (Q8TAQ2 whole entry): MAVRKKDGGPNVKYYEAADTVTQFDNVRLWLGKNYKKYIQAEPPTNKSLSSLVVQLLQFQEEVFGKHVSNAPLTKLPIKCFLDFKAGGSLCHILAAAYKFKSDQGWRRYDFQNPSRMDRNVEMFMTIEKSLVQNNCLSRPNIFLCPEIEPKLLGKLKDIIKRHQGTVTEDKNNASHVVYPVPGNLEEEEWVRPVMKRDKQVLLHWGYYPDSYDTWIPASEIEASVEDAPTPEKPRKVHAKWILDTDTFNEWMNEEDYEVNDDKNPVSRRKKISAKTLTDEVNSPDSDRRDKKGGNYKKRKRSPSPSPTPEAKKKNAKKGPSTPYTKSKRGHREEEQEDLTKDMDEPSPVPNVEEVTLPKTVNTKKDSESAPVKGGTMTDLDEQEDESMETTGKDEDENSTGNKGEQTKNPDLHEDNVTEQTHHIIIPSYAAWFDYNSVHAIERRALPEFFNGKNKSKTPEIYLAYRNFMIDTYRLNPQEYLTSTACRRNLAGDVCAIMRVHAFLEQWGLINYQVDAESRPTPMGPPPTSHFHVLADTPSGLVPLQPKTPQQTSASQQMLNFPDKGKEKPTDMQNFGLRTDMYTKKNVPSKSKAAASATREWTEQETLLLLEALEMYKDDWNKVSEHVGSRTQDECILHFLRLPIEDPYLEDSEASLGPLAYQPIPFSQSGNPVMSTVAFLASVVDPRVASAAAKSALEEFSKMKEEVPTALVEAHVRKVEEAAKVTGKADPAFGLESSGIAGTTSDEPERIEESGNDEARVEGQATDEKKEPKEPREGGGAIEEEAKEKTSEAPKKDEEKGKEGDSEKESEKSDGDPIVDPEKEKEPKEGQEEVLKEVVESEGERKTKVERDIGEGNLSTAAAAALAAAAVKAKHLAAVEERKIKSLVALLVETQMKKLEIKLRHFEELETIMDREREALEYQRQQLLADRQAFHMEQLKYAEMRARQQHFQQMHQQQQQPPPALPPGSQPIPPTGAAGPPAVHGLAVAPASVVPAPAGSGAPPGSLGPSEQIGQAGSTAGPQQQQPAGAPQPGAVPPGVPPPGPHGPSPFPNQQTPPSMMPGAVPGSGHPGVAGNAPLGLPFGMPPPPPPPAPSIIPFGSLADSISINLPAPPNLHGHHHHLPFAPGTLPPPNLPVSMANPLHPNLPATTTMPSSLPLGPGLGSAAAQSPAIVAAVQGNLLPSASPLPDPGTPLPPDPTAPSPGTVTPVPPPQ

DCUN1D1 C115 (Q96GG9), sequence (Q96GG9 whole entry): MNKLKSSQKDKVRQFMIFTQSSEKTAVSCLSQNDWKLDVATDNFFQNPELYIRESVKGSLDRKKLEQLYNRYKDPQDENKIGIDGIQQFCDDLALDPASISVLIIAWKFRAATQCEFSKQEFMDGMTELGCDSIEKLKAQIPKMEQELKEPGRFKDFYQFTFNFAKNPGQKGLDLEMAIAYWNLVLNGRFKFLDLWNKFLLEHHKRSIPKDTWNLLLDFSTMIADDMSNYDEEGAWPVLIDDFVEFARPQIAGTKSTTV
XPO1 C528 (O14980), sequence (O14980 whole entry, the tested form may be a part): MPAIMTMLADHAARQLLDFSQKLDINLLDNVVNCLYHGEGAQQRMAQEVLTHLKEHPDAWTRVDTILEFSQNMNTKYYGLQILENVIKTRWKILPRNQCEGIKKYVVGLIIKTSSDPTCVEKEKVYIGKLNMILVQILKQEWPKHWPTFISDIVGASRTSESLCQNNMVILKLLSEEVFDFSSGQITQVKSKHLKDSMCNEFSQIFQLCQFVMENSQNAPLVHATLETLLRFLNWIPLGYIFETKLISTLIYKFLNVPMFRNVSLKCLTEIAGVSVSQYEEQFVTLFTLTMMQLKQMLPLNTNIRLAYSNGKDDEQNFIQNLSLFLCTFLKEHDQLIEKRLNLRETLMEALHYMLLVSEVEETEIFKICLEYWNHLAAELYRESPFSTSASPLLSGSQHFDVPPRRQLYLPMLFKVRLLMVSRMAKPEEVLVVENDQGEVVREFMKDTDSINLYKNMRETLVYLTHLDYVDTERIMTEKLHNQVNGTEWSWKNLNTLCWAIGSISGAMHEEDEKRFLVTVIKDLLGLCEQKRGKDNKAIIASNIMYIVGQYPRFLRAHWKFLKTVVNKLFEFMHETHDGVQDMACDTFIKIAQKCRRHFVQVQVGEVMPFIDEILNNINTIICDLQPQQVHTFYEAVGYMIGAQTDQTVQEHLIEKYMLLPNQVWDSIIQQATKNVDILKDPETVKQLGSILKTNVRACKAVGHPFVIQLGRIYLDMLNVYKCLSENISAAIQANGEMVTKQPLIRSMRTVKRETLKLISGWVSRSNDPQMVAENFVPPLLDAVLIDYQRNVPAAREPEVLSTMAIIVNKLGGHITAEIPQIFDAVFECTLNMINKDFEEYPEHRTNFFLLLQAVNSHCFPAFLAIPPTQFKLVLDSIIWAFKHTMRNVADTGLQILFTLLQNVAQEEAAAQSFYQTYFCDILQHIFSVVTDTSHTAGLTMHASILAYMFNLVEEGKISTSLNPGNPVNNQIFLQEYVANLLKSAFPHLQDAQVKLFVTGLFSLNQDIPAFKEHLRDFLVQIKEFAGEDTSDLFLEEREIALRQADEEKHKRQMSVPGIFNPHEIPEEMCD
XPO1 C34 (O14980), sequence (O14980 whole entry, one chain of several): as the sequence (O14980 whole entry, the tested form may be a part) above
PRMT1 C109 (Q99873), sequence (Q99873 whole entry, the tested form may be a part): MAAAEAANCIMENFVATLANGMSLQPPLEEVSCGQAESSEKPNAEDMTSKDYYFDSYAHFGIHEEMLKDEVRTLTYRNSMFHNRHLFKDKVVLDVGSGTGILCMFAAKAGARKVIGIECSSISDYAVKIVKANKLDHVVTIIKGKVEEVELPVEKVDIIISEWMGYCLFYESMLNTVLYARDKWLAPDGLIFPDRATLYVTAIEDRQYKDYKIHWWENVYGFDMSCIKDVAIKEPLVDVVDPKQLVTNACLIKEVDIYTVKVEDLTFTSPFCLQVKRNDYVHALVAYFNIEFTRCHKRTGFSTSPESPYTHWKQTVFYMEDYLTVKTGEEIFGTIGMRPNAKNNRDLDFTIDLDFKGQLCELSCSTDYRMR
STAT3 C259 (P40763), sequence (P40763 whole entry): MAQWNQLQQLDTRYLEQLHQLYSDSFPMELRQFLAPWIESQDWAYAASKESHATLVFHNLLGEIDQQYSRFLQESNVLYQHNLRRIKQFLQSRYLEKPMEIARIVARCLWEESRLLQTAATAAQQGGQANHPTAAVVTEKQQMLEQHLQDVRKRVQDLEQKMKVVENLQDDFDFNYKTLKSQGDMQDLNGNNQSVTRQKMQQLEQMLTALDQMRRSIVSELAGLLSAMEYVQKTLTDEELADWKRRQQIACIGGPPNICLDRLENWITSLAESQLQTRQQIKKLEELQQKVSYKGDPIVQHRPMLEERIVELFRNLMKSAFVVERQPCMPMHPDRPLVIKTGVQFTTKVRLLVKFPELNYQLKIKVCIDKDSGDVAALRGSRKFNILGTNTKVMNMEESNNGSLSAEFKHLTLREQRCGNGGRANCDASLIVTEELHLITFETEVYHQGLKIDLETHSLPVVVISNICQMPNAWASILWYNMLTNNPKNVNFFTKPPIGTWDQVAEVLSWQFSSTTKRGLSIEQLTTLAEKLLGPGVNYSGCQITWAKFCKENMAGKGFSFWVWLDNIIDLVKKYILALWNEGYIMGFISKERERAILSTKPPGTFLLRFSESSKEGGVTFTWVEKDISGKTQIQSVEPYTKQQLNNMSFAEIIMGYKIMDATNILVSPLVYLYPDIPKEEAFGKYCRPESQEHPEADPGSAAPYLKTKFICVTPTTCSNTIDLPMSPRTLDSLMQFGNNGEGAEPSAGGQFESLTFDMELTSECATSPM

isoTOP-ABPP reactivity ratio, P24752_C119 ([1]; in-vitro_ramos) | isoTOP-ABPP reactivity ratio, P24752_C119 ([1]; in-vitro_ramos_231) | isoTOP-ABPP reactivity ratio, P24752_C126 ([2]; 500 μm, in-vitro_ramos_231) | isoTOP-ABPP reactivity ratio, O14980_C34 ([3]; in-vitro_ramos) | isoTOP-ABPP reactivity ratio, O14980_C34 ([3]; in-vitro_ramos_231) | isoTOP-ABPP reactivity ratio, P00813_C75 ([4]; 500 μm, in-vitro_ramos) | isoTOP-ABPP reactivity ratio, Q15084_C190 ([5]; in-vitro_ramos_231) | isoTOP-ABPP reactivity ratio, O14980_C528 ([6]; 500 μm, in-vitro_ramos) | isoTOP-ABPP reactivity ratio, O14980_C528 ([6]; 500 μm, in-vitro_ramos_231) | isoTOP-ABPP reactivity ratio, Q99873_C109 ([7]; in-vitro_ramos) | isoTOP-ABPP reactivity ratio, Q99873_C109 ([7]; in-vitro_ramos_231) | isoTOP-ABPP reactivity ratio, Q96GG9_C115 ([8]; 500 μm, in-vitro_ramos) | isoTOP-ABPP reactivity ratio, Q8TAQ2_C145 ([10]; in-vitro_ramos) | isoTOP-ABPP reactivity ratio, Q8TAQ2_C145 ([10]; in-vitro_ramos_231) | isoTOP-ABPP reactivity ratio, P24752_C126 ([2]; 500 μm, in-vitro_ramos) | SMILES | further results
 |  |  |  |  |  |  |  |  |  |  |  |  |  |  | CC(Br)C(=O)Nc1cc(C(F)(F)F)cc(C(F)(F)F)c1 (stereo not shown) [compound 24] | isoTOP-ABPP ratio (reactivity profile), P24752_C119 ([1]; 500 μm in-vitro ramos): 1.3; isoTOP-ABPP ratio (reactivity profile), P24752_C126 ([2]; 500 μm in-vitro ramos): 1.1; isoTOP-ABPP ratio (reactivity profile), O14980_C34 ([3]; 500 μm in-vitro ramos): 1.1; isoTOP-ABPP ratio (reactivity profile), P00813_C75 ([4]; 500 μm in-vitro ramos): 1.2; isoTOP-ABPP ratio (reactivity profile), Q15084_C190 ([5]; 500 μm in-vitro ramos): 1.7; isoTOP-ABPP ratio (reactivity profile), O14980_C528 ([6]; 500 μm in-vitro ramos): 20.0; isoTOP-ABPP ratio (reactivity profile), Q99873_C109 ([7]; 500 μm in-vitro ramos): 1.0; isoTOP-ABPP ratio (reactivity profile), Q96GG9_C115 ([8]; 500 μm in-vitro ramos): 1.7; isoTOP-ABPP ratio (reactivity profile), P40763_C259 ([9]; 500 μm in-vitro ramos): 1.7; isoTOP-ABPP ratio (reactivity profile), Q8TAQ2_C145 ([10]; 500 μm in-vitro ramos): 5.4
 |  |  |  |  |  |  |  |  |  |  |  |  |  |  | CC(C)CCOCCNC(=O)CCl [compound 27] | isoTOP-ABPP ratio (reactivity profile), P24752_C119 ([1]; 500 μm in-vitro ramos): 1.0; isoTOP-ABPP ratio (reactivity profile), P24752_C119 ([1]; 500 μm in-vitro ramos_231): 0.9 and 1.0; isoTOP-ABPP ratio (reactivity profile), P24752_C126 ([2]; 500 μm in-vitro ramos): 1.3; isoTOP-ABPP ratio (reactivity profile), P24752_C126 ([2]; 500 μm in-vitro ramos_231): 0.9 and 1.0; isoTOP-ABPP ratio (reactivity profile), O14980_C34 ([3]; 500 μm in-vitro ramos): 1.0; isoTOP-ABPP ratio (reactivity profile), O14980_C34 ([3]; 500 μm in-vitro ramos_231): 0.9 and 1.0; isoTOP-ABPP ratio (reactivity profile), P00813_C75 ([4]; 500 μm in-vitro ramos): 1.0; isoTOP-ABPP ratio (reactivity profile), P00813_C75 ([4]; 500 μm in-vitro ramos_231): 1.1; isoTOP-ABPP ratio (reactivity profile), Q15084_C190 ([5]; 500 μm in-vitro ramos): 1.1; isoTOP-ABPP ratio (reactivity profile), Q15084_C190 ([5]; 500 μm in-vitro ramos_231): 0.9; isoTOP-ABPP ratio (reactivity profile), O14980_C528 ([6]; 500 μm in-vitro ramos): 0.8; isoTOP-ABPP ratio (reactivity profile), O14980_C528 ([6]; 500 μm in-vitro ramos_231): 1.2 and 0.9; isoTOP-ABPP ratio (reactivity profile), Q99873_C109 ([7]; 500 μm in-vitro ramos): 1.0; isoTOP-ABPP ratio (reactivity profile), Q99873_C109 ([7]; 500 μm in-vitro ramos_231): 0.7 and 0.9; isoTOP-ABPP ratio (reactivity profile), Q96GG9_C115 ([8]; 500 μm in-vitro ramos): 1.0; isoTOP-ABPP ratio (reactivity profile), Q96GG9_C115 ([8]; 500 μm in-vitro ramos_231): 1.1; isoTOP-ABPP ratio (reactivity profile), P40763_C259 ([9]; 500 μm in-vitro ramos_231): 0.7; isoTOP-ABPP ratio (reactivity profile), Q8TAQ2_C145 ([10]; 500 μm in-vitro ramos): 1.2; isoTOP-ABPP ratio (reactivity profile), Q8TAQ2_C145 ([10]; 500 μm in-vitro ramos_231): 0.9
0.7 | 1.3 | 1.1 | 0.8 | 1.0 | 0.8 | 1.3 | 3.2 | 5.2 | 1.3 | 1.0 | 0.9 | 0.9 | 1.1 |  | C=CC(=O)N(Cc1cccnc1)c1cc(C(F)(F)F)cc(C(F)(F)F)c1 [compound 31] | isoTOP-ABPP reactivity ratio, Q15084_C190 ([5]; in-vitro_ramos): 1.2; isoTOP-ABPP reactivity ratio, P40763_C259 ([9]; 500 μm, in-vitro_ramos_231): 1.7
1.3 | 1.7 | 7.3 | 1.0 | 1.2 | 1.7 | 20.0 | 1.2 | 1.7 | 1.8 | 1.7 | 0.9 | 20.0 | 20.0 | 8.6 | CC(C)(C)c1cc(NC(=O)CCl)on1 [compound 32] | isoTOP-ABPP reactivity ratio, Q15084_C190 ([5]; in-vitro_ramos): 20.0; isoTOP-ABPP reactivity ratio, P40763_C259 ([9]; 500 μm, in-vitro_ramos_231): 10.2
1.0 | 0.9 |  | 1.3 | 0.8 | 1.1 | 0.9 | 0.8 |  | 1.0 | 0.8 | 0.9 |  | 0.9 | 10.4 | O=C(CCl)Nc1ccccc1C1CCCCCC1 [compound 35] | isoTOP-ABPP reactivity ratio, P40763_C259 ([9]; 500 μm, in-vitro_ramos): 1.1
1.7 | 1.0 | 1.0 | 1.0 | 1.0 | 2.3 | 1.1 |  | 1.0 | 1.4 | 0.9 | 1.0 | 1.9 | 1.1 | 1.4 | C=CC(=O)Nc1cc(F)c(N2CCN(C(=O)OC(C)(C)C)CC2)c(F)c1 [compound 38] | isoTOP-ABPP reactivity ratio, Q96GG9_C115 ([8]; 500 μm, in-vitro_ramos_231): 1.2; isoTOP-ABPP reactivity ratio, P40763_C259 ([9]; 500 μm, in-vitro_ramos): 1.5
 |  |  |  |  |  |  |  |  |  |  |  |  |  |  | O=C(CCl)Nc1ccc(-c2ccccc2)cc1 [compound 52] | isoTOP-ABPP reactivity profile ratio, P24752_C119 ([1]; in-vitro_ramos): 0.8; isoTOP-ABPP reactivity profile ratio, P24752_C119 ([1]; in-vitro_ramos_231): 1.4; isoTOP-ABPP reactivity profile ratio, P24752_C126 ([2]; 500 μm, in-vitro_ramos_231): 1.3; isoTOP-ABPP reactivity profile ratio, O14980_C34 ([3]; in-vitro_ramos): 1.1; isoTOP-ABPP reactivity profile ratio, O14980_C34 ([3]; in-vitro_ramos_231): 1.0; isoTOP-ABPP reactivity profile ratio, P00813_C75 ([4]; 500 μm, in-vitro_ramos): 1.2; isoTOP-ABPP reactivity profile ratio, Q15084_C190 ([5]; in-vitro_ramos): 1.9; isoTOP-ABPP reactivity profile ratio, Q15084_C190 ([5]; in-vitro_ramos_231): 1.0; isoTOP-ABPP reactivity profile ratio, O14980_C528 ([6]; 500 μm, in-vitro_ramos_231): 1.3; isoTOP-ABPP reactivity profile ratio, Q99873_C109 ([7]; in-vitro_ramos): 1.3; isoTOP-ABPP reactivity profile ratio, Q99873_C109 ([7]; in-vitro_ramos_231): 0.9; isoTOP-ABPP reactivity profile ratio, Q96GG9_C115 ([8]; 500 μm, in-vitro_ramos): 1.0; isoTOP-ABPP reactivity profile ratio, P40763_C259 ([9]; 500 μm, in-vitro_ramos_231): 2.2; isoTOP-ABPP reactivity profile ratio, Q8TAQ2_C145 ([10]; in-vitro_ramos): 1.8; isoTOP-ABPP reactivity profile ratio, Q8TAQ2_C145 ([10]; in-vitro_ramos_231): 0.9
